The subject of one test is PBMCs. Briefly: LPS-induced IL-8 release in PBMC cells (assay b). It counts as cell-based, human. Conditions: Homo sapiens, PBMC; LPS-stimulated PBMCs; read-out: IC50 Values for Inhibition of Cytokine Release, PBMCs IL-8. Here is the method: Peripheral blood mononuclear cells (PBMCs) from healthy subjects are separated from whole blood using a density gradient (Lymphoprep, Axis-Shield Healthcare). The PBMCs are seeded in 96 well plates and treated with compounds at the desired concentration for 2 hours before addition of 1 ng/mL LPS (Escherichia Coli 0111:B4 from Sigma Aldrich) for 24 hours under normal tissue culture conditions (37° C., 5% CO2). The supernatant is harvested for determination of IL-8 and TNFα concentrations by sandwich ELISA (Duo-set, R&D systems) and read on the fluorescence microplate reader (Varioskan® Flash, ThermoFisher Scientific). The concentration at 50% inhibition (IC50) of IL-8 and TNFα production is calculated from the dose response curve.

Another test concerns the target GSK 3α (Homo sapiens (Human), UniProt P49840). Briefly: GSK 3α enzyme inhibition (FRET, Z-LYTE, Method 2). The following applies: read-out: IC50 Values for Enzyme Inhibition, GSK3α. It counts as biochemical. The method, then:
The enzyme inhibitory activities of compounds disclosed herein are determined by FRET using synthetic peptides labelled with both donor and acceptor fluorophores (Z-LYTE, Invitrogen Ltd., Paisley, UK).
The following two assay variants can be used for determination of GSK 3α inhibition.
The inhibitory activities of compounds of the invention against the GSK 3α enzyme isoform (Invitrogen), are evaluated by determining the level of activation/phosphorylation of the target peptide. The GSK3-α protein (500 ng/mL, 2.5 μL) is mixed with the test compound (2.5 μL at either 4 μg/mL, 0.4 μg/mL, 0.04 μg/mL, or 0.004 μg/mL) for 2 hr at RT. The FRET peptide (8 μM, 2.5 μL), which is a phosphorylation target for GSK3α, and ATP (40 μM, 2.5 μL) are then added to the enzyme/compound mixture and the resulting mixture incubated for 1 hr. Development reagent (protease, 5 μL) is added for 1 hr prior to detection in a fluorescence microplate reader (Varioskan® Flash, ThermoFisher Scientific).
In all cases, the site-specific protease cleaves non-phosphorylated peptide only and eliminates the FRET signal. Phosphorylation levels of each reaction are calculated using the ratio of coumarin emission (donor) over fluorescein emission (acceptor), for which high ratios indicate high phosphorylation and low ratios indicate low phosphorylation levels. The percentage inhibition of each reaction is calculated relative to non-inhibited control and the 50% inhibitory concentration (IC50 value) is then calculated from the concentration-response curve.
This method follows the same steps as Method 1 above, but utilises a shorter period of mixing of the test compound (105 minutes instead of 2 hours) with the GSK3-α protein.

The structures appear in SMILES notation.

Chain of GSK 3α (P49840 whole entry): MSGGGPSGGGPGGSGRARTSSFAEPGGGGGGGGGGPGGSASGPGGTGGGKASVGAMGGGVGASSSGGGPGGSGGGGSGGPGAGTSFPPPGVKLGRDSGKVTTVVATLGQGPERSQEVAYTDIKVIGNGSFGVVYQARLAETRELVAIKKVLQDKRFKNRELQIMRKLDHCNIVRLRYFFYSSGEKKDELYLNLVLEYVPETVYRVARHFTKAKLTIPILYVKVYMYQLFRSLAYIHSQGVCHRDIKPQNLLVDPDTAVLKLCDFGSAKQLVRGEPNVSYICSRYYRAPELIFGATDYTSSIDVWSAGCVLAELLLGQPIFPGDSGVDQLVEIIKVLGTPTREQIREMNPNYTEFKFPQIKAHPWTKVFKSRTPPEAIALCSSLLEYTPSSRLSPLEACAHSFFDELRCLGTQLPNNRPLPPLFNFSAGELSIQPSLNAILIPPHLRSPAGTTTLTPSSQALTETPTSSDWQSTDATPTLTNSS

Consider `COc1c(NC(=O)Nc2ccc(Oc3ccnc(Nc4ccccc4)c3)c3ccccc23)cc(C(C)(C)C)cc1[S+](C)[O-]` (single isomer, unassigned) [38(b2), 1-(5-(tert-Butyl)-2-methoxy-3-(methylsulfinyl)phenyl)-3-(4-((2-(phenylamino)pyridin-4-yl)oxy)naphthalen-1-yl)urea], for which the IC50 with PBMCs was 0.006 µM; on GSK 3α it was > 11.1 µM. Regarding `COc1c(NC(=O)Nc2ccc(Oc3ccnc(Nc4ccc5c(c4)C(=O)NC5)n3)c3ccccc23)cc(C(C)(C)C)cc1P(C)(C)=O` [15(ab), 1-(5-(tert-butyl)-3-(dimethylphosphoryl)-2-methoxyphenyl)-3-(4-((2-((3-oxoisoindolin-5-yl)amino)pyrimidin-4-yl)oxy)naphthalen-1-yl)urea], the IC50 with PBMCs was found to be 0.0055 µM; on GSK 3α, 0.097 µM. In the same order, the values of `CCP(=O)(CC)c1cc(C(C)(C)C)cc(NC(=O)Nc2ccc(Oc3ccnc(Nc4ccccc4)c3)c3ccccc23)c1OC` [15(ac), 1-(5-(tert-butyl)-3-(diethylphosphoryl)-2-methoxyphenyl)-3-(4-((2-(phenylamino)-pyridin-4-yl)oxy)naphthalen-1-yl)urea] are 0.0091 µM and > 14.7 µM. With `COc1c(NC(=O)Nc2ccc(Oc3ccnc(Nc4cncc(N(C)C)n4)c3)c3ccccc23)cc(C(C)(C)C)cc1P(C)(C)=O` [15(ae), 1-(5-(tert-butyl)-3-(dimethylphosphoryl)-2-methoxyphenyl)-3-(4-((2-((6-(dimethylamino)pyrazin-2-yl)amino)pyridin-4-yl)oxy)naphthalen-1-yl)urea], the IC50 in the test on PBMCs worked out at 0.0039 µM; on GSK 3α, 0.871 µM. In the case of `COc1c(NC(=O)Nc2ccc(Oc3ccnc(Nc4ccccc4)c3)c3ccccc23)cc(C(C)(C)C)cc1C(=O)NCCN1CCCC1` [15(ag), 5-(tert-butyl)-2-methoxy-3-(3-(4-((2-(phenylamino)pyridin-4-yl)oxy)naphthalen-1-yl)ureido)-N-(2-(pyrrolidin-1-yl)ethyl)benzamide], the IC50 in the test on PBMCs worked out at 0.0098 µM; on GSK 3α it was 5.81 µM.

Take `COc1c(NC(=O)Nc2ccc(Oc3ccnc(NC4CCN(C)CC4)n3)c3ccccc23)cc(C(C)(C)C)cc1P(C)(C)=O` [15(ah), 1-(5-(tert-butyl)-3-(dimethylphosphoryl)-2-methoxyphenyl)-3-(4-((2-((1-methylpiperidin-4-yl)amino)pyrimidin-4-yl)oxy)naphthalen-1-yl)urea]: the IC50 was 0.299 µM in the test with PBMCs and 0.602 µM on GSK 3α. As to `COc1c(NC(=O)Nc2ccc(Oc3ccnc(N[C@@H]4CCOC4)n3)c3ccccc23)cc(C(C)(C)C)cc1P(C)(C)=O` [15(ai), (R)-1-(5-(tert-butyl)-3-(dimethylphosphoryl)-2-methoxyphenyl)-3-(4-((2-((tetrahydrofuran-3-yl)amino)pyrimidin-4-yl)oxy)naphthalen-1-yl)urea], the figures for the IC50 in the test on PBMCs and at GSK 3α were 0.0037 µM and 0.127 µM, respectively.

In the case of `COc1c(NC(=O)Nc2ccc(Oc3ccnc(N[C@H]4CCOC4)n3)c3ccccc23)cc(C(C)(C)C)cc1P(C)(C)=O` [15(aj), (S)-1-(5-(tert-butyl)-3-(dimethylphosphoryl)-2-methoxyphenyl)-3-(4-((2-((tetrahydrofuran-3-yl)amino)pyrimidin-4-yl)oxy)naphthalen-1-yl)urea], the IC50 in the test on PBMCs was found to be 0.0018 µM; on GSK 3α, 0.068 µM.

As for `COc1c(NC(=O)Nc2ccc(Oc3ccnc(Nc4cc(C)cc(Cl)c4)c3)c3ccccc23)cc(C(C)(C)C)cc1P(C)(C)=O` [15(am), 1-(5-(tert-butyl)-3-(dimethylphosphoryl)-2-methoxyphenyl)-3-(4-((2-((3-chloro-5-methylmethylphenyl)amino)pyridin-4-yl)oxy)naphthalen-1-yl)urea], the IC50 with PBMCs was determined as 0.0061 µM.

`COc1cc(Nc2cc(Oc3ccc(NC(=O)Nc4cc(C(C)(C)C)cc(C(=O)NCCN5CCNCC5)c4OC)c4ccccc34)ccn2)cc(OC)c1` [79(h), 5-(tert-Butyl)-3-(3-(4-((2-((3,5-dimethoxyphenyl)amino)pyridin-4-yl)oxy)naphthalen-1-yl)ureido)-2-methoxy-N-(2-(piperazin-1-yl)ethyl)benzamide]: in the test on PBMCs, the IC50 worked out at 0.0164 µM. Consider `COc1cc(Nc2nccc(Oc3ccc(NC(=O)Nc4cc(C(C)(C)C)cc(S(C)(=O)=O)c4OC)c4ccccc34)n2)ccc1C(=O)O` [79(i), 4-((4-((4-(3-(5-(tert-Butyl)-2-methoxy-3-(methylsulfonyl)phenyl)ureido)naphthalen-1-yl)oxy)pyrimidin-2-yl)amino)-2-methoxybenzoic acid], for which, in the test on PBMCs, the IC50 came to 0.0122 µM. The same measure, in the same setting: the same measure for `COc1cc(Nc2nccc(Oc3ccc(NC(=O)Nc4cc(C(C)(C)C)cc([S+](C)[O-])c4OC)c4ccccc34)n2)ccc1C(=O)O` (stereo not shown) [79(j), 4-((4-((4-(3-(5-(tert-Butyl)-2-methoxy-3-(methylsulfinyl)phenyl)ureido)naphthalen-1-yl)oxy)pyrimidin-2-yl)amino)-2-methoxybenzoic acid]: 0.0153 µM; for `COc1cc(Nc2cc(Oc3ccc(NC(=O)Nc4cc(C(C)(C)C)cc(P(C)(C)=O)c4OC)c4ccccc34)ccn2)cc(C(=O)N(C)CCN2CCN(C)CC2)c1` [79(k), 3-((4-((4-(3-(5-(tert-Butyl)-3-(dimethylphosphoryl)-2-methoxyphenyl)ureido)naphthalen-1-yl)oxy)pyridin-2-yl)amino)-5-methoxy-N-methyl-N-(2-(4-methylpiperazin-1-yl)ethyl)benzamide]: 0.007 µM. Still for that read-out and setting: the same measure for `COc1cc(Nc2cc(Oc3ccc(NC(=O)Nc4cc(C(C)(C)C)cc(P(C)(C)=O)c4OC)c4ccccc34)ccn2)cc(C(=O)N(C)CCC2CCN(C)CC2)c1` [79(l), 3-((4-((4-(3-(5-(tert-Butyl)-3-(dimethylphosphoryl)-2-methoxyphenyl)ureido)naphthalen-1-yl)oxy)pyridin-2-yl)amino)-5-methoxy-N-methyl-N-(2-(1-methylpiperidin-4-yl)ethyl)benzamide]: 0.0225 µM.

Turning to `COCCOCCOCCNC(=O)c1cc(Nc2nccc(Oc3ccc(NC(=O)Nc4cc(C(C)(C)C)cc(CNC(=O)CN(C)C)c4OC)c4ccccc34)n2)cc(OC)c1` [Example 81, 3-((4-((4-(3-(5-(tert-Butyl)-3-((2-(dimethylamino)acetamido)methyl)-2-methoxyphenyl)ureido)-naphthalen-1-yl)oxy)pyrimidin-2-yl)amino)-5-methoxy-N-(2-(2-(2-methoxyethoxy)ethoxy)-ethyl)benzamide], in the test on PBMCs, the IC50 turned out to be 0.0004 µM. Turning to `COCCOCCOCCNC(=O)c1cc(Nc2cc(Oc3ccc(NC(=O)Nc4cc(C(C)(C)C)cc(CN5CCN(C)CC5)c4OC)c4ccccc34)ccn2)cc(OC)c1` [Example 82, 3-((4-((4-(3-(5-(tert-Butyl)-2-methoxy-3-((4-methylpiperazin-1-yl)methyl)phenyl)ureido)-naphthalen-1-yl)oxy)pyridin-2-yl)amino)-5-methoxy-N-(2-(2-(2-methoxyethoxy)ethoxy)ethyl)-benzamide], the IC50 in the test with PBMCs worked out at 0.0017 µM.

Turning to `COc1cc(Nc2nccc(Oc3ccc(NC(=O)Nc4cc(C(C)(C)C)cc([S+](C)[O-])c4OC)c4ccccc34)n2)cc(C(=O)NCCN2CCN(C)CC2)c1` (stereo not shown) [Example 83, 3-((4-((4-(3-(5-(tert-Butyl)-2-methoxy-3-(methylsulfinyl)phenyl)ureido)naphthalen-1-yl)oxy)pyrimidin-2-yl)amino)-5-methoxy-N-(2-(4-methylpiperazin-1-yl)ethyl)benzamide], in the test on PBMCs, the IC50 was found to be 0.0015 µM.

As a reminder, the IC50 is the midpoint of a concentration-inhibition curve.

Source of the values: patent publication US9890185B2, “Urea derivatives useful as kinase inhibitors” (Respivert Limited, priority 2013, dated 2018).
